Here are results for one compound from ChEMBL document CHEMBL4825757, “Optimization of 4,6-Disubstituted Pyrido[3,2-d]pyrimidines as Dual MNK/PIM Inhibitors to Inhibit Leukemia Cell Growth” (J Med Chem, 2021).

Test [1] deals with Epidermal growth factor receptor (Homo sapiens, UniProt P00533). The test is described as follows: Inhibition of wild-type human partial length EGFR (R669 to V1011 residues) expressed in bacterial expression system at 1 uM by Kinomescan method relative to control.
The subject of test [2] is MOLM-13. In words: Induction of cell cycle arrest in human MOLM-13 cells assessed as sub-G1 phase at 2 uM incubated for 12 hr by propidium iodide based flow cytometry analysis (Rvb= 4.78%). In kind it is functional.
For test [3], the system named is MOLM-13. The test is described as follows: Induction of apoptosis in human MOLM-13 cells assessed as early apoptotic cells at 2 uM incubated for 12 hrs by annexin-V and propidium iodide staining based flow cytometry analysis (reference value: 5.40%). In kind it is functional. (In general: Flow cytometry measures light scatter and fluorescence of single cells or particles in a stream.)

The subject of test [4] is MOLM-13. The test is described as follows: Antitumor activity against human MOLM-13 cells xenografted in NOD/SCID mouse assessed as decrease in eIF4E phosphorylation at 10 mg/kg, ip daily for 2 weeks by western blot analysis. Type of test: functional, organism-based. For orientation: A xenograft is tissue or cells of one species grown in another, often human tumour cells in immunodeficient mice.

The source made the active and inactive calls. No cut-off for these calls is given here.

Epidermal growth factor receptor, sequence (P00533 whole entry, the tested form may be a part): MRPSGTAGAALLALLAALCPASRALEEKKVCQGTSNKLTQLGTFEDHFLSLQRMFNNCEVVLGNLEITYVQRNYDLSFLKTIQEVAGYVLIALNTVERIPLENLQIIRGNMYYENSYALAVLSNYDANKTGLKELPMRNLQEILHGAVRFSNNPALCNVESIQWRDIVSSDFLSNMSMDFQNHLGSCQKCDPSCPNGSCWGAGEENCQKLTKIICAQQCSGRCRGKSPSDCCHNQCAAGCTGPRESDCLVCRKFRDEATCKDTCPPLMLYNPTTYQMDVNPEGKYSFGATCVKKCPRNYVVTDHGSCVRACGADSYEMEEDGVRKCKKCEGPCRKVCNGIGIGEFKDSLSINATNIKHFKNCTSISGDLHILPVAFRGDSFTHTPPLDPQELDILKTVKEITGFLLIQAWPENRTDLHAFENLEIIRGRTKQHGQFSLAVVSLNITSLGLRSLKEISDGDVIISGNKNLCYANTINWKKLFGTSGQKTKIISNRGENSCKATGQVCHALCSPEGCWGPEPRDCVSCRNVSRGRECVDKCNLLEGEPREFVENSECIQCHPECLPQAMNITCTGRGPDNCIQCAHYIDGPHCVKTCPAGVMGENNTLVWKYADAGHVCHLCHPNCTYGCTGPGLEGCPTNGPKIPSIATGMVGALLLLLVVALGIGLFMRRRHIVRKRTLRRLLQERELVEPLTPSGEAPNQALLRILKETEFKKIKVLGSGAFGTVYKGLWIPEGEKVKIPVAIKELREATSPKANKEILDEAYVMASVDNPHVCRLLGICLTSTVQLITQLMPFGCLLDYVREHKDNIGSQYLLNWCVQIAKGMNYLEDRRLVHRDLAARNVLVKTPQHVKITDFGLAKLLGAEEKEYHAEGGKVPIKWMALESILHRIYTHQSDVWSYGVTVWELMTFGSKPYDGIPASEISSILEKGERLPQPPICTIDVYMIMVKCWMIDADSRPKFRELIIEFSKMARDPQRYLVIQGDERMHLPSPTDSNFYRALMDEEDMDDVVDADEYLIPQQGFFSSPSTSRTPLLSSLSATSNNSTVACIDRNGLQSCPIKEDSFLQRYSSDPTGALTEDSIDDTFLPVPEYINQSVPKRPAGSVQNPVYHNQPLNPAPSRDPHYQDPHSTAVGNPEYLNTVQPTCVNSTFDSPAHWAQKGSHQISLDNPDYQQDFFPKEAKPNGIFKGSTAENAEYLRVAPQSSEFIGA

For the compound `CC(C)Oc1cc(F)ccc1Nc1ncnc2ccc(-c3ccc(C(=O)N4CCNCC4)cc3)nc12`, the inhibition in test [1] came to 73%. For the same compound, the results for the Activity in the test on MOLM-13 [2] and in the test on MOLM-13 [3] were 32.41% and 29.57%, respectively. Further, the result in the test on MOLM-13 [4] was Active.

By inhibition is commonly meant the change of the read-out against control, counted positive when it falls.
